This passage reports Km results from article PMC7994567, “Characterization of a novel sn1,3 lipase from Ricinus communis L. suitable for production of oleic acid-palmitic acid-glycerol oleate” (Scientific Reports, 2021).

This assay relates to T1, RcLipase.
T1 construct: catalytic Ser146, Asp211, His276; oxyanion Thr63, Leu147
The assay can be described thus: hydrolysis kinetics, Michaelis-Menten non-linear regression. Conditions: 20 mM Tris-HCl pH 8.0, 40 °C; substrate 0-1 mM. The format is biochemical, Ricinus communis.

Take `CCCCCCCC/C=C\CCCCCCCC(=O)OCC(COC(=O)CCCCCCC/C=C\CCCCCCCC)OC(=O)CCCCCCC/C=C\CCCCCCCC` [Triolein]: the Michaelis constant (Km) amounted to 210 ± 10 µM. The result for `CCCCCCCCCCCCCCCC(=O)OCC(COC(=O)CCCCCCCCCCCCCCC)OC(=O)CCCCCCCCCCCCCCC` [Tripalmitin] reads 170 ± 10 µM.
